The subject of this test is 2C TCR mouse CD8+ T cells, vesicle binding, flow cytometry. Put plainly: inhibitors of CD8+ T cell LFA-1/ICAM-1 adhesion – powder samples, single concentration, mouse 2C TCR, flow cytometry, confirmation (AID 504568).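 As to all read-outs here: lower values mean less vesicle binding and point to an inhibitor.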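 As to double-positive events (T cell-vesicle binding): the gate for binding is set so anti-LFA-1 blocked control wells show 10% double positives.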 Conditions: stronger effect = lower value; for mean fluorescence percent response: measured here: CD8+ cell vesicle fluorescence mean.

Molecules are shown by their SMILES. Activity calls are given as the source filed them.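 The calls were made as follows: active = binding readouts below 60% of the midpoint between blocked and unblocked controls, with summed weighted score above 1; inactive = the rest.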

For `Cn1c(CNC(=O)CNC(=O)c2ccc(F)cc2)cc(=O)n(C)c1=O`, the double-positive events (T cell-vesicle binding) is 29.7% (inactive) and the mean fluorescence percent response turned out to be 165%.

As for `Cc1ccc(N2CC(C(=O)NC3=NCCS3)CC2=O)cc1` (configuration not stated), the double-positive events (T cell-vesicle binding) was 21.9% (inactive) and the mean fluorescence percent response stood at 161%.

Consider `COC(=O)c1ccccc1NC(=O)C1CCN(C(=O)c2cc(OC)cc(OC)c2)CC1`, for which the double-positive events (T cell-vesicle binding) was 29.9% (inactive) and the mean fluorescence percent response came out at 172%.

For `O=C(NCc1cccnc1)C(=O)NCC(c1ccco1)N1CCN(c2ccccc2)CC1` (configuration not stated), the double-positive events (T cell-vesicle binding) is 26.8% (inactive) and the mean fluorescence percent response amounted to 149%.

`CCOC(=O)N1CCN(C(=O)c2ccc(CS(=O)Cc3ccc(C)cc3)o2)CC1` (configuration not stated): the double-positive events (T cell-vesicle binding) is 26.5% (inactive) and the mean fluorescence percent response was 146%.

Consider `CCOCC(=O)Nc1ccc(S(=O)(=O)N2CCC(c3nc4ccccc4[nH]3)CC2)cc1`, for which the double-positive events (T cell-vesicle binding) was 16.4% and the mean fluorescence percent response came out at 97.1%.

In the case of `COc1ccc(CNC(=O)c2cccnc2SC)cc1OC`, the double-positive events (T cell-vesicle binding) was 26.7% (inactive) and the mean fluorescence percent response is 163%.

`CN1CCN(S(=O)(=O)c2cccc(C(=O)Nc3cc(C(F)(F)F)ccc3N3CCCCC3)c2)CC1`: the double-positive events (T cell-vesicle binding) is 21.7% and the mean fluorescence percent response came out at 105%.

Turning to `CCOC(=O)c1c(C=O)c2ccccc2n1CC`, the double-positive events (T cell-vesicle binding) was 20.5% and the mean fluorescence percent response is 148%.

As to `CCN(CC)CCNC(=O)CCCNC(=O)Cn1cnc2sc(C)c(C)c2c1=O`, the double-positive events (T cell-vesicle binding) was 30.9% (inactive) and the mean fluorescence percent response worked out at 196%.

In the case of `COc1ccccc1CNC(=O)COc1ccc(C)cc1`, the double-positive events (T cell-vesicle binding) is 24.8% (inactive) and the mean fluorescence percent response turned out to be 173%.

As for `O=C(CC1=NCCNC(c2ccccc2)C1)c1ccccc1O` (configuration not stated), the double-positive events (T cell-vesicle binding) is 28% (inactive) and the mean fluorescence percent response was 170%.

For the compound `Cc1ccc(C(=O)NCCCN2CCOCC2)c(C)c1`, the double-positive events (T cell-vesicle binding) was 24.4% and the mean fluorescence percent response came to 136%.

Regarding `O=C(OCCOc1cccc(Cl)c1)c1ccc(F)c(S(=O)(=O)N2CCOCC2)c1`, the double-positive events (T cell-vesicle binding) is 25.8% (inactive) and the mean fluorescence percent response came to 163%.

Take `COc1ccc(C2=Nc3cc(C)ccc3OC2)cc1`: the double-positive events (T cell-vesicle binding) is 26.7% (inactive) and the mean fluorescence percent response came to 140%.

`COCCCN1CCc2[nH]c(=S)[nH]c(=O)c2C1`: the double-positive events (T cell-vesicle binding) was 28% (inactive) and the mean fluorescence percent response was 169%.

In the case of `CCCNC(=O)c1nc2ncc(Br)cn2n1`, the double-positive events (T cell-vesicle binding) is 25.8% (inactive) and the mean fluorescence percent response amounted to 154%.

On to `Cc1sc2ncnc(NCC(C)(C)N3CCOCC3)c2c1C`, for which the double-positive events (T cell-vesicle binding) is 20.2% and the mean fluorescence percent response worked out at 126%.

Consider `CC1CCCCC1NC(=O)COC(=O)c1ccc2ncsc2c1` (configuration not stated), for which the double-positive events (T cell-vesicle binding) was 19.9% and the mean fluorescence percent response was 111%.

As to `Cc1ccccc1C(=O)N1CCC(C(=O)Nc2ccc(C)c(S(=O)(=O)N3CCCCC3)c2)CC1`, the double-positive events (T cell-vesicle binding) was 22.7% and the mean fluorescence percent response amounted to 130%.

Take `O=C(CCC(=O)N1CCOCC1)NCc1cccc(C(F)(F)F)c1`: the double-positive events (T cell-vesicle binding) was 24.3% (inactive) and the mean fluorescence percent response came out at 133%.

Source of the values: PubChem BioAssay AID504568 (NMMLSC, 2011).
